Results taken from article PMC8243516, “Inhibition of lysosomal phospholipase A2 predicts drug-induced phospholipidosis” (Journal of Lipid Research, 2021).

Columns and labels:
phospholipidosis [1] = settings: phospholipidosis reported in vivo, species codes; Refs of Table 1; cited from earlier work
[2] = ref Pubchem and chEMBL databases; cited from earlier work
LPLA2 = target: T1, LPLA2 (Mus musculus, UniProt Q8VEB4); experiment: LPLA2 thermal stability measurement (SYPRO Orange Tm); format: binding; settings: N=3 ± SD
T1 construct: purchased Proteos Inc. (Kalamazoo, MI)
T1 sequence (Q8VEB4 34-412): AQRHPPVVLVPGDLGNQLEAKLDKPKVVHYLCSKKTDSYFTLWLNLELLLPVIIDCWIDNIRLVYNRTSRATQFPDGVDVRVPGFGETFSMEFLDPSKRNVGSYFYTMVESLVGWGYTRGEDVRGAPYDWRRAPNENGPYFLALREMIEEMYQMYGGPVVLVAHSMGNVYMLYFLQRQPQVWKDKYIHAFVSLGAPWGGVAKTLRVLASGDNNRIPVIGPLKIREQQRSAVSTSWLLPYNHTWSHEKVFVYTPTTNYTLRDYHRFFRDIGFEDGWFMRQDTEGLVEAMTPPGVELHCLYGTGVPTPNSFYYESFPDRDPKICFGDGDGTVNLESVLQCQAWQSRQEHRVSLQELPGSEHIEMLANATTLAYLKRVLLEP

[3] = target: T2, recombinant mouse LPLA2 (PLA2G15) (Mus musculus, UniProt Q8VEB4); experiment: Transacylase activity of LPLA2 (1-O-acyl-N-acetylsphingosine synthase, cell-free liposome assay); format: biochemical; settings: for IC50: 1-O-acyl N-acetylsphingosine synthase activity, pH 4.5, DOPC/sulfatide liposomes, read-out: LPLA2 IC50
T2 construct: purchased Proteos Inc. (Kalamazoo, MI)
T2 sequence (Q8VEB4 34-412): T1 sequence (Q8VEB4 34-412)

phospholipidosis [4] = settings: phospholipidosis reported in vitro; Refs of Table 1; cited from earlier work

(ΔTm)c-(ΔTm)d, difference in melting temperature of LPLA2 alone or in the presence of drug (LPLA2) [°C] | IC50 [3] [µM] | SMILES | In Vivo PLD (phospholipidosis [1]) | pKa (basic) [2] | LPLA2 inhibition (in words) ([3]; acyl transferase activity) | In Vitro PLD (phospholipidosis [4])
-0.10 ± 0.0 | 63 | OCCOCCN1CCN(C(c2ccccc2)c2ccc(Cl)cc2)CC1 (centres unmarked) [Hydroxyzine, 2-(2-{4-[(4-chlorophenyl) (phenyl)methyl]piperazin-1-yl}ethoxy)ethan-1-ol] | R | 7.82 | – | –
– | – | CNCCC(Oc1ccc(C(F)(F)F)cc1)c1ccccc1 (centres unmarked) [Fluoxetine, methyl({3-phenyl-3-[4-(trifluoromethyl)phenoxy]propyl}) amine] | H,R,M | – | – | Yes
– | – | CCN(CC)CCCC(C)Nc1c2ccc(Cl)cc2nc2ccc(OC)cc12.Cl.Cl (centres unmarked) [Quinacrine, 6-chloro-9-(4-diethylamino-1-methylbutylamino)-2-methoxyacridine dihydrochloride] | R | – | – | Yes
-0.12 ± 0.0 | 11.7 | C1CCC(C(CC2CCCCN2)C2CCCCC2)CC1 (centres unmarked) [Perhexiline, 2-(2,2-dicyclohexylethyl) piperidine] | H,R,M | 10.58 | – | Yes
0.58 ± 0.4 | 116 | Clc1ccccc1CNC[C@H]1CC[C@H](CNCc2ccccc2Cl)CC1 [ay-9944, trans-1,4-bis(2-chlorobenzylaminomethyl) cyclohexane] | R,Ra, M | 9.1 | – | Yes
– | 6.24 | CN(C)CCC=C1c2ccccc2C=Cc2ccccc21 [Cyclobenzaprine, dimethyl(3-{tricyclo[9.4.0.0^3,^8]pentadeca-1(15),3,5,7,9,11,13-heptaen-2-ylidene}propyl)amine] | Yes | – | – | Yes
-2.1 ± 0.2 | 9.01 | CN(C)CCCN1c2ccccc2Sc2ccc(Cl)cc21 [Chlorpromazine, [3-(2-chloro-10H-phenothiazin-10-yl)propyl] dimethylamine] | R, D | – | – | Yes
-0.5 ± 0.0 | 14.7 | CN(C)CCC=C1c2ccccc2CCc2ccccc21 [Amitriptyline, dimethyl(3-{tricyclo[9.4.0.0^3,^8]pentadeca-1(15),3,5,7,11,13-hexaen-2-ylidene}propyl)amine] | R | – | – | Yes
0.27 ± 0.1 | 33 | NC[C@H]1O[C@H](O[C@H]2[C@H](O)[C@@H](O[C@H]3O[C@H](CO)[C@@H](O)[C@H](N)[C@H]3O)[C@H](N)C[C@@H]2N)[C@H](N)C[C@@H]1O [Tobramycin, O-[3-amino-3-deoxy-α-D-glucopyranosyl-(1→6)]-O-[2,6-diamino-2,3,6-trideoxy-α-D-ribohexopyranosyl-(1→4)]-2-deoxy-D-streptamine] | R,H | 9.8 | – | Yes
0 | 27.6 | CN(C)CCCN1c2ccccc2CCc2ccccc21 [Imipramine, (3-{2-azatricyclo[9.4.0.0^3,^8]pentadeca-1(15),3,5,7,11, 13-hexaen-2-yl}propyl)dimethylamine] | R | 9.2 | – | Yes
1.60 ± 0.1 | 25.7 | CNCCCN1c2ccccc2CCc2ccccc21 [Desipramine, (3-{2-azatricyclo [9.4.0.0]pentadeca-1(15),3,5,7,11,13-hexaen-2-yl}propyl)(methyl)amine] | R | – | – | Yes
– | – | CCC[C@@H]1C[C@@H](C(=O)NC(C(C)Cl)[C@H]2O[C@H](SC)[C@H](O)[C@@H](O)[C@H]2O)N(C)C1 (stereo partly drawn) [Clindamycin, (2S,4R)-N-{2-chloro-1-[(2R,3R,4S,5R,6R)-3,4,5-trihydroxy-6-(methylsulfanyl)oxan-2-yl]propyl}-1-methyl-4-propylpyrrolidine-2-carboxamide] | Yes | – | – | Yes
– | – | CN(C)CCC=C1c2ccccc2COc2ccccc21 [Doxepin, dimethyl(3-{9-oxatricyclo[9.4.0.0ˆ[1]]pentadeca-1(15),3,5,7,11,13-hexaen-2-ylidene}propyl)amine] | Yes | 9.76 | – | Yes
– | – | CCCCc1oc2ccccc2c1C(=O)c1cc(I)c(OCCN(CC)CC)c(I)c1 [Amiodarone, {2-[4-(2-butyl-1-benzofuran-3-carbonyl)-2,6-diiodophenoxy]ethyl} diethyl amine] | H,R | – | – | Yes
– | – | CN[C@H]1CC[C@@H](c2ccc(Cl)c(Cl)c2)c2ccccc21 [Sertraline, (1S,4S)-4-(3,4-dichlorophenyl)-N-methyl-1,2,3,4-tetrahydronaphthalen-1-amine] | Yes | – | – | Yes
– | – | CNCCCC12CCC(c3ccccc31)c1ccccc12 [Maprotiline, methyl(3-{tetracyclo [6.6.2.0^2,^7.0^9,^14]hexadeca-2,4,6,9,11, 13-hexaen-1-yl}propyl)amine] | R | 10.54 | – | –

SMILES | (ΔTm)c-(ΔTm)d, difference in melting temperature of LPLA2 alone or in the presence of drug (LPLA2) [°C] | IC50 [3] [µM] | In Vivo PLD (phospholipidosis [1]) | pKa (basic) [2] | LPLA2 inhibition (in words) ([3]; acyl transferase activity) | In Vitro PLD (phospholipidosis [4])
CCN1CCCC1CNC(=O)c1cc(S(N)(=O)=O)ccc1OC (centres unmarked) [Sulpiride, N-[(1-ethylpyrrolidin-2-yl)methyl]-2-methoxy-5-sulfamoylbenzamide] | 1.34 ± 0.9 | – | Yes | 8.4 | no inhibitory activity | –
CCN(CC)CCCC(C)Nc1ccnc2cc(Cl)ccc12 (centres unmarked) [Chloroquine, 7-chloro-N-[5-(diethylamino)pentan-2-yl]quinolin-4-amine] | – | 655 | H, R, D, M | – | – | Yes
CCN(CC)CCOc1ccc(C(O)(Cc2ccc(Cl)cc2)c2ccc(C)cc2)cc1 (centres unmarked) [Triparanol, 1-(4-(2-diethylaminoethoxy)phenyl)-1-p-tolyl-2-(4-chlorophenyl)ethanol] | 0 | 7.8 | R, M, Ha | 13.44 | – | Yes
CC(CN1c2ccccc2Sc2ccccc21)N(C)C (centres unmarked) [Promethazine, dimethyl[1-(10H-phenothiazin-10-yl)propan-2-yl] amine] | 1.45 ± 0.5 | 40.3 | Yes | – | – | Yes
C=C[C@H]1C[N@@]2CC[C@H]1C[C@H]2[C@H](O)c1ccnc2ccc(OC)cc12 [Quinine, (R)-[(1S,2S,4S,5R)-5-ethenyl-1-azabicyclo [2.2.2]octan-2-yl](6-methoxyquinolin-4-yl)methanol] | -1.00 ± 0.1 | 164 | Yes | – | – | –
CN(C)CCCC1(c2ccc(F)cc2)OCc2cc(C#N)ccc21 (centres unmarked) [Citalopram, 1-[3-(dimethylamino)propyl]-1-(4-fluorophenyl)-1,3-dihydro-2-benzofuran-5-carbonitrile] | 0 | 19.5 | Yes | – | – | Yes
